According to PubChem BioAssay AID651709 (Sanford-Burnham Center for Chemical Genomics, 2012):

Target: Probable nicotinate-nucleotide adenylyltransferase (Staphylococcus aureus (strain N315)) (UniProt P65502)
Test: potency of S. aureus NadD blockers – biochemical, colorimetric, set 2, dose response (AID 651709)
Settings: purified S. aureus NadD, colorimetric enzyme assay

IC50: 50 µM
Structure (SMILES): C[c-]1[c-](C)[c-](C)[c-](C)[c-]1C.[Fe].c1cc2nccc(N3CCCC3)[c-]2c1 (stereo unspecified)
